The numbers were not newly measured in paper PMC6838683, “Discovery of Human Signaling Systems: Pairing Peptides to G Protein-Coupled Receptors” (Cell, 2019), which cites them from elsewhere.

Read-outs that look alike come from different tables or passages of the source.

This data set deals with human GPCRs. Also noted: method as in Guide to Pharmacology database. The note with it: max reported value, ref Guide to Pharmacology database, cited from earlier work. The source says: Supplement mmc1.xlsx, sheet "HumanGPCRLigands" | column: pKi_value; pKd_value; pEC50_value; pIC50_value
The mark [1] stands for this setting: receptor p2ry2_human (P2RY2), P2Y receptors.
Where [2] appears, read: receptor p2ry4_human (P2RY4), P2Y receptors.
Where [3] appears, read: receptor p2y11_human (P2RY11), P2Y receptors.
The mark [4] stands for this setting: receptor gp183_human (GPR183), Class A orphans.
Where [5] appears, read: receptor LTB4R2 (lt4r2_human, Q9NPC1).
Setting [6] is: receptor LTB4R (lt4r1_human, Q15722).
The mark [7] stands for this setting: receptor p2ry1_human (P2RY1), P2Y receptors.
Where [8] appears, read: receptor p2y13_human (P2RY13), P2Y receptors.
Setting [9] is: receptor grm2_human (GRM2, Q14416).
Where [10] appears, read: receptor grm3_human (GRM3, Q14832).
The mark [11] stands for this setting: receptor grm7_human (GRM7, Q14831).
The mark [12] stands for this setting: receptor grm8_human (GRM8, O00222).
[13] abbreviates: receptor CYSLTR1 (cltr1_human, Q9Y271).
Setting [14] is: receptor CYSLTR2 (cltr2_human, Q9NS75).
Where [15] appears, read: receptor fpr2_human (FPR2, P25090).
Setting [16] is: receptor PTAFR (ptafr_human, P25105).
[17] abbreviates: receptor PTGDR2 (pd2r2_human, Q9Y5Y4).
[18] abbreviates: receptor PTGDR (pd2r_human, Q13258).
Setting [19] is: receptor pe2r2_human (PTGER2), Prostanoid receptors.
Setting [20] is: receptor pe2r4_human (PTGER4), Prostanoid receptors.
Where [21] appears, read: receptor pf2r_human (PTGFR), Prostanoid receptors.
[22] abbreviates: receptor pe2r1_human (PTGER1), Prostanoid receptors.
[23] abbreviates: receptor pe2r3_human (PTGER3), Prostanoid receptors.
[24] abbreviates: receptor ta2r_human (TBXA2R), Prostanoid receptors.

With `O=c1ccn([C@@H]2O[C@H](CO[P@@](=O)(O)O[P@@](=O)(O)OP(=O)(O)O)[C@@H](O)[C@H]2O)c(=O)[nH]1` (stereo in doubt) [uridine triphosphate], the pEC50_value under setting [1] is recorded as 8.1; the pEC50_value under setting [2] is reported as 6.3; the pEC50_value (receptor p2ry6_human (P2RY6), P2Y receptors) is reported as 5.2; the pEC50_value under setting [3] is 5.2.

With `CCCCCC(O)CC(=O)O` (centres unmarked) [3-hydroxyoctanoic acid], the pEC50_value (receptor hcar3_human (HCAR3), Hydroxycarboxylic acid receptors) is 5.1.

Regarding `CCCCCCCC/C=C\C/C=C\C=C/C(=O)CCCC(=O)O` [5-oxo-C20:3], the pEC50_value (receptor OXER1 (oxer1_human, Q8TDS5)) was 8.

In the case of `C[C@H](CCCC(C)(C)O)[C@H]1CC[C@H]2[C@@H]3[C@H](O)C=C4C[C@@H](O)CC[C@]4(C)[C@H]3CC[C@]12C` [7α,25-dihydroxycholesterol], under setting [4], the pEC50_value was 9.9 and the pIC50_value is given as 9.6.

Regarding `CCCCCC(O)C=CC=CCC=CCCCC(=O)O` (centres unmarked) [12-hydroxyheptadecatrienoic acid], under setting [5], the pEC50_value was 7.7 and the pIC50_value is 8.6.

Consider `C[C@]12CC[C@@H]3c4ccc(O)cc4CC[C@H]3[C@@H]1CC[C@@H]2O` [17β-estradiol], for which the pKi_value (receptor gper1_human (GPER1), Estrogen (G protein-coupled) receptors) is given as 8.5.

Take `O=C(O)CCC[C@H](O)\C=C/C=C/C=C/[C@H](O)C/C=C\CCCCCO` [20-hydroxy-LTB4]: under setting [6], the pKi_value is on record as 8.1.

As for `NC[C@H](O)c1ccc(O)c(O)c1` [(-)-noradrenaline], the pKi_value runs as follows: (receptor ada1a_human (ADRA1A, P35348)) 6.4; (receptor ada1b_human (ADRA1B, P35368)) 6.2; (receptor ada1d_human (ADRA1D, P25100)) 7.4; (receptor ada2a_human (ADRA2A, P08913)) 7.4; (receptor ada2b_human (ADRA2B, P18089)) 6; (receptor ada2c_human (ADRA2C, P18825)) 6.8. The pKi_value is given as 6 (receptor adrb1_human (ADRB1, P08588)); 4.8 (receptor adrb2_human (ADRB2, P07550)); 6.3 (receptor adrb3_human (ADRB3, P13945)).

For `Nc1ncnc2c1ncn2[C@@H]1O[C@H](COP(=O)(O)OP(=O)(O)O)[C@@H](O)[C@H]1O` [ADP], the pIC50_value is, setting by setting: under setting [7], 7.2; under setting [8], 6.5. For the same compound, where the note is “receptor p2y12_human (P2RY12), P2Y receptors”, the pKi_value is on record as 5.9.

Consider `Nc1ncnc2c1ncn2[C@@H]1O[C@H](COP(=O)(O)OP(=O)(O)OP(=O)(O)O)[C@@H](O)[C@H]1O` [ATP], for which the pIC50_value runs as follows: under setting [7], 7.8; under setting [8], 5.4. For the same compound, the pKi_value under setting [7] is reported as 4.8. Further, the pEC50_value runs as follows: under setting [1], 7.1; under setting [2], 5.4; under setting [3], 5.6. Besides, the pKd_value under setting [2] is given as 6.2.

Take `N[C@@H](CCC(=O)O)C(=O)O` [L-glutamic acid]: the pEC50_value is on record as 5 (receptor grm1_human (GRM1, Q13255)); 5.4 under setting [9]; 5.4 under setting [10]; 5.5 (receptor grm4_human (GRM4, Q14833)); 5.5 (receptor grm5_human (GRM5, P41594)); 5.2 (receptor grm6_human (GRM6, O15303)). The pEC50_value under setting [11] was 3 and the pEC50_value under setting [12] is on record as 5.6. Also, the pKi_value is on record as 4.9 under setting [9], 7.4 under setting [10] and 3.1 under setting [11]. Also, the pIC50_value under setting [12] was 5.7.

For `C[C@H](O)C(=O)O` [L-lactic acid], the pEC50_value (receptor hcar1_human (HCAR1), Hydroxycarboxylic acid receptors) is on record as 2.9.

Turning to `CCCCC/C=C\C[C@@H](O)/C=C/C=C/C=C\[C@@H](O)CCCC(=O)O` [LTB4], under setting [5], the pEC50_value is listed as 6.8, the pIC50_value is reported as 7.6 and the pKd_value is given as 7.6. The pKi_value under setting [6] is listed as 9.4.

Regarding `CCCCC/C=C\C\C=C/C=C/C=C/[C@@H](SC[C@H](NC(=O)CC[C@H](N)C(=O)O)C(=O)NCC(=O)O)[C@@H](O)CCCC(=O)O` [LTC4], under setting [13], the pEC50_value is 7.7, the pIC50_value was 6.5 and the pKi_value is recorded as 8.1. In addition, under setting [14], the pEC50_value is 7.3 and the pIC50_value is on record as 8.5.

As for `CCCCC/C=C\C\C=C/C=C/C=C/[C@@H](SC[C@H](N)C(=O)NCC(=O)O)[C@@H](O)CCCC(=O)O` [LTD4], under setting [13], the pEC50_value is recorded as 8.5 and the pIC50_value is 8.1. Moreover, under setting [14], the pEC50_value is 7.4, the pIC50_value is 8.1 and the pKi_value is 8.1.

Take `CCCCC/C=C\C\C=C/C=C/C=C/[C@@H](SC[C@H](N)C(=O)O)[C@@H](O)CCCC(=O)O` [LTE4]: under setting [13], the pEC50_value is recorded as 6.7, the pIC50_value was 7 and the pKi_value was 7.8. Under setting [14], the pEC50_value is 5.9, the pIC50_value is 5.7 and the pKi_value is 6.5.

Regarding `CCCCC[C@H](O)/C=C/C=C\C=C\C=C\[C@@H](O)[C@@H](O)CCCC(=O)O` [LXA4], under setting [15], the pEC50_value is given as 12 and the pKd_value is given as 9.3.

On to `CCCCCCCC/C=C\CCCCCCCC(=O)NCCO` [N-oleoylethanolamide], for which the pEC50_value (receptor GPR119 (gp119_human, Q8TDV5)) is listed as 6.3.

For the compound `CCCCCCCCCCCCCCCCOC[C@H](COP(=O)([O-])OCC[N+](C)(C)C)OC(C)=O` [PAF], under setting [16], the pIC50_value is 8.2 and the pKi_value was 7.9.

In the case of `CCCCC[C@H](O)/C=C/[C@H]1C(=O)C[C@H](O)[C@@H]1C/C=C\CCCC(=O)O` [PGD2], the pKi_value by setting is: under setting [17], 8.6; under setting [18], 9.2; (receptor PTGER1 (pe2r1_human, P34995)) 4.7; under setting [19], 5; under setting [20], 9; under setting [21], 7.7. For the same compound, under setting [20], the pEC50_value is 8.8.

With `CCCCC[C@H](O)/C=C/[C@H]1[C@H](O)CC(=O)[C@@H]1C/C=C\CCCC(=O)O` [PGE2], the pKi_value is listed as 5.3 under setting [17]; 7 under setting [18]; 8 under setting [22]; 8.3 under setting [19]; 9.5 under setting [23]; 9.1 under setting [20]. In addition, the pKi_value by setting is: under setting [21], 6.9; under setting [24], 4.5. For the same compound, the pKd_value under setting [23] is reported as 8.7. Further, the pEC50_value under setting [20] is on record as 6.1.

Consider `CCCCC[C@H](O)/C=C/[C@@H]1[C@@H](C/C=C\CCCC(=O)O)[C@@H](O)C[C@H]1O` [PGF2α], for which the pKi_value by setting is: under setting [17], 6.4; under setting [18], 6.4; under setting [22], 6.3; under setting [19], 6; under setting [23], 7.4; under setting [20], 9.5. In addition, the pKi_value is, setting by setting: under setting [21], 8.5; under setting [24], 5.1. Also, the pEC50_value under setting [20] is recorded as 6.1.

With `CCCCC[C@H](O)/C=C/[C@@H]1[C@H]2C/C(=C/CCCC(=O)O)O[C@H]2C[C@H]1O` [PGI2], the pKi_value was 4.8 under setting [22]; 5.1 under setting [20]; 7.8 (receptor pi2r_human (PTGIR), Prostanoid receptors).
